# From patent US8501806B2, “Methods for preventing or reducing colon carcinogenesis” (Nogra Pharma Limited, priority 2008, dated 2013)
# How the values were obtained:
# HCT-116 cells = assay: Cell cycle distribution (BrdU/PI flow cytometry); assay type: cell-based, human; details: FIG. 5; increasing concentrations, 24 hours
# Protocol: For analysis of cell cycle distribution, serum-starved cells were cultured in medium containing 0.05% BSA and the desiderated concentrations of compound 14 for 24 hours. Cells were pulsed with 10 μM BrdU for 60 minutes, then collected, washed twice with PBS 1×, fixed in 70% cold ethanol, and stored at −20° C. for at least 3 hours. Afterwards, cells were washed twice with PBS 1×, denatured in 2M HCl and stained with anti-BrdU monoclonal antibody (Immunotech, Marseille, France) followed by FITC-conjugated secondary anti-mouse IgG (Molecular Probes/Invitrogen, Milan, Italy). After staining with 100 μg/ml PI, cells were analyzed by flow cytometry. […] HCT-116 cells were treated with or without compound 14 for 24 hours. Values in FIG. 5 are the percentages of cells in the different phases of cell cycle and indicate mean±SD of 4 experiments (untreated vs compound 14-treated cells * P<0.04, ** P<0.001). Right insets show representative dot-plots of the cell cycle distribution.
# 4T1-derived tumors = assay: 4T1 syngeneic tumor model; assay type: in vivo, Balb/c mice; details: FIG. 10; daily subcutaneous or intraperitoneal 8 mg/kg/mouse, starting day 3
# Protocol: Eight- to 10-week-old female Balb/c mice were used for the 4T1 syngeneic tumor model. 4T1 cells (1×10^5 cells in 300 μl PBS 1×) were injected subcutaneously (s.c.) into the flank of mice, whose fur was shaved and depilated. Three groups of 8 mice each were implanted with 4T1. The first group received daily s.c. 300 μl PBS (control), the remaining groups were injected daily with compound 14 (8 mg/kg/mouse) s.c. or intraperitoneally (i.p.). Both compound 14 and PBS were administered starting on day 3. Mice were monitored over the time for weight loss and sacrificed at day 14. Tumors were photographed, and excised, and their mass calculated according to the following formula: ½×(short diameter)×(long diameter)×(height).
# [1] = system: colitis-associated colon cancer; assay: AOM/DSS colitis-associated colon cancer; assay type: in vivo, Balb/c mice; details: i.p. 16 mg/kg/mouse every second day for 49 days
# Protocol: Balb/c mice were given a first i.p. injection of AOM (10 mg/kg) on day O, Seven days after the AOM injection, the mice were given 2% DSS in the drinking water for 7 days. One week after the discontinuation of DSS administration, the mice were given a second i.p. injection of AOM (5 mg/kg). Then, 7 days after the second AOM injection, the mice were again given 2% DSS in the drinking water for 7 days. Two weeks later, the mice were randomly divided into two groups receiving i.p. injection of PBS or 16 mg/kg/mouse compound 14 every second day, for 49 days until sacrifice. (To rule out the possibility that compound 14 could interfere with the ongoing mucosal inflammation, treatment was started 2 weeks after the last DSS administration.) Mice were endoscopically screened, and neoplastic lesions were scored as previously described All mice were sacrificed at the end of the study, and colonic samples were used for histological analysis and isolating lamina propria mononuclear cells (LPMC). An aliquot of LPMC was assessed for the expression of CD4, CD8, and CD25 by flow-cytometry using the following antibodies (CD4: cat. 552051, BD Pharmigen, Milan, Italy; CD8: cat. 22150084S and CD25: cat. 22150253, Immunotools, Friesoythe, Germany), while the remaining LPMC were used for extracting RNA and assessing the expression of COX-2, TNFα, and IL-1β by real-time PCR. To this end, the following primers were used: COX-2: FWD: 5′-[…]-3′; REV: 5′-[…]-3′, TNFα: FWD: 5′-[…]-3′; REV: 5′-[…]-3, IL-1β: FWD: 5′-[…]-3′; REV: 5′-[…]-3.
# Colonic sections were stained with hematoxylin and eosin (H&E). The degree of inflammation and the presence of neoplastic lesions were evaluated and graded by the same pathologist in a blinded fashion. Immunohistochemistry for PCNA was performed using a PCNA staining kit (ZYMED Laboratories, Carlsbad, Calif., U.S.A.) according to the manufacturer's instructions. […] A polypoidor flat lesion is seen in control and compound 14-treated mice respectively.
# CT26-derived tumors = assay: In vivo formation of CT26-derived tumors; parameters: species or system Balb/c mice; details: for mice with CT26-derived macroscopic tumors: fourteen days after injection (control 10/10)
# Protocol: CT26 cells (1×10^5 cells in 300 μl PBS 1×) were injected subcutaneously into the flank of Balb/c mice, whose fur was shaved and depilated. Five groups of 10 mice each were implanted with CT26. The first group received daily subcutaneously 300 μl PBS (control), the remaining groups received daily subcutaneously compound 14 at a final dose of 1, 4, 8, or 12 mg/kg/mouse dissolved in 300 μl PBS. Both compound 14 and PBS were administered starting on day 3. Further experimentation was performed to assess whether compound 14 had anti-cancer activity when administered systemically. To this end, 3 days after the CT26 inoculation, mice were injected with PBS or compound 14 (8 mg/kg/mouse) intraperitoneally. As a control, mice received subcutaneously compound 14 (8 mg/kg/mouse). Mice were monitored over the time for weight loss. After 2 weeks, mice were sacrificed, tumors were photographed, then excised and their mass calculated according to the following formula: ½×(short diameter)×(long diameter)×(height). Total extracts were prepared from xenografts and analyzed for cyclin D1 protein content by Western blotting using a commercially available antibody (Santa Cruz Biotechnology). To examine whether compound 14 was able to reduce the growth of established CRC xenografts, Balb/c mice were implanted with CT26 as described above. After 2 weeks, mice with similar tumor size, determined by caliper measurements, were divided into three groups of 8 mice each. The first group received daily subcutaneously 300 μl PBS (control), the second group received daily subcutaneously 5-ASA (80 mg/kg) dissolved in 300 μl PBS. The last group received daily subcutaneously compound 14 (8 mg/kg) dissolved in 300 μl PBS. Mice were monitored over the time for weight loss. After 2 weeks, mice were sacrificed, tumors were photographed, then excised and their mass calculated as described above. Studies were approved by the Local Ethical Committee.
compound,measurement,setting,value
"COc1ccc(N)cc1C(=O)NO [compound 14, 2-methoxy-5-amino-N-hydroxybenzamide]",cells in G0/G1 phase,HCT-116 cells,progressive accumulation
same,cells with S and G2/M phase DNA content,HCT-116 cells,decrease
same,4T1-derived tumor mass in comparison to controls,4T1-derived tumors,significant decrease
same,multiplicity of neoplastic lesions (polypoid and flat),[1]; FIG. 8C,significantly reduced both types of lesions
same,PCNA staining in normal colonic mucosa,[1],no significant change
same,PCNA staining of neoplastic lesions,[1],confirmed the anti-proliferative effect
same,in-vivo formation of CT26-derived tumors,"CT26-derived tumors; FIG. 7A, daily subcutaneously 1, 4, 8, or 12 mg/kg/mouse",dose-dependently reduces
same,CT26-derived xenografts,"CT26-derived tumors; FIG. 7B, intra-peritoneally 8 mg/kg/mouse",inhibits
same,cyclin D1 protein expression in xenografts,"CT26-derived tumors; FIG. 7C, Western blotting, two different doses",reduced
same,body weight loss,"CT26-derived tumors; during the study, treated groups",No body weight loss
same,tumor mass in comparison to controls,CT26-derived tumors; given subcutaneously or intraperitoneally,significant decrease
same,mice with CT26-derived macroscopic tumors,CT26-derived tumors; intraperitoneally,7/10
same,"histological analysis of liver, kidney, spleen, and colon",CT26-derived tumors; mice receiving compound,no morphological alteration
same,survival,"CT26-derived tumors; mouse, in vivo",all animals survived
same,mice with CT26-derived macroscopic tumors,CT26-derived tumors; subcutaneously,5/10
